These results are taken from patent US9028845B2, “Chimeric immunomodulatory compounds and methods of using the same-IV” (Dynavax Technologies Corporation, priority 2001, dated 2015).

The subject of this data set is human PBMCs. The data set is described as follows: Human PBMC cytokine response assay (IFN-γ and IFN-α in cell-free medium by ELISA), with or without cPLGA.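 For IFN-α (pg/ml) mean: 20 µg/mL compound for 24 hours.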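 For IFN-γ (pg/ml) mean: 20 µg/mL compound for 24 hours.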 It counts as cell-based. Particulars: for IFN-α (pg/ml) mean / IFN-γ (pg/ml) mean: mean of donors 110, 112, 119, 120; for IFN-α induction, in words / IFN-γ induction, in words: used alone; for immunomodulatory activity (IFN-γ / IFN-α secretion), in words: used alone (no cPLGA); for IFN-a / IFN-g / IFN-a mean / IFN-g mean: Table 25; for IFN-a mean / IFN-g mean: mean of donors 28250-28253. A general note: An ELISA detects its analyte on a solid surface through an enzyme-linked reagent.

Where [1] appears, read: donor 28250, polynucleotides/spacers at amounts equivalent to the CIC, spacers alone 9 uM.
Where [2] appears, read: Table 24, mean of donors 28234-28237.

Consider “5′-TCGAACG-3′-HEG-5′-TCGAACG-3′-HEG-5′-TCGAACG-3′ [Compound C-50]”, for which the “IFN-α induction, in words” value is reported as “generated more IFN-α than CICs containing a 5′-TCGT-3′” and the “immunomodulatory activity (IFN-γ / IFN-α secretion), in words” value was “more active than other CG-containing CICs”. Under “Table 10, donor 28042”, this substance came in with an IFN-α of 36 pg/mL and an IFN-γ of 1324 pg/mL. Under “Table 10, donor 28043”, the IFN-α was 137 pg/mL and the IFN-γ was determined as 1292 pg/mL. Moreover, for the setting “Table 10, donor 28044”, the IFN-α amounted to 193 pg/mL and the IFN-γ is 509 pg/mL. For the setting “Table 10, donor 28045”, this substance returned an IFN-α of 35 pg/mL and an IFN-γ of 192 pg/mL. Further, for the setting “Table 10, mean of donors”, the IFN-α mean was determined as 100 pg/mL and the IFN-γ mean was 829 pg/mL. Where the note is “donor 110, Table 14”, the “IFN-α” value came to 716 pg/mL and the “IFN-γ” value stood at 1096 pg/mL. Also, where the note is “donor 112, Table 14”, the “IFN-α” value came out at 84 pg/mL and the “IFN-γ” value is 264 pg/mL. For the setting “donor 119, Table 14”, the “IFN-α” value was 838 pg/mL and the “IFN-γ” value was 52 pg/mL. Under “donor 120, Table 14”, the “IFN-α” value was determined as 636 pg/mL and the “IFN-γ” value was determined as 48 pg/mL. Further, where the note is “Table 14”, the “IFN-α (pg/ml) mean” value is 569 pg/mL and the “IFN-γ (pg/ml) mean” value stood at 365 pg/mL.
For the substance “5′-TCGAACGTTCGA-3′ (SEQ ID NO: 155) (listed as DNA, chemistry not fully specified) [Compound P-17, reference compound]”, the IFN-α is 52 pg/mL (Example 58, 0.8 ug/ml, donor 1); 105 pg/mL (Example 58, 0.8 ug/ml, donor 2); 52 pg/mL (Example 58, 0.8 ug/ml, donor 3); 286 pg/mL (Example 58, 0.8 ug/ml, donor 4); 9154 pg/mL (Example 58, 4 ug/ml, donor 1); 10388 pg/mL (Example 58, 4 ug/ml, donor 2). Also, the IFN-α reads like this: (Example 58, 4 ug/ml, donor 3) 531 pg/mL; (Example 58, 4 ug/ml, donor 4) 837 pg/mL; (Example 58, 20 ug/ml, donor 1) 1022 pg/mL; (Example 58, 20 ug/ml, donor 2) 1792 pg/mL; (Example 58, 20 ug/ml, donor 3) 52 pg/mL; (Example 58, 20 ug/ml, donor 4) 52 pg/mL. For the same substance, the IFN-α mean runs as follows: (Example 58, 0.8 ug/ml, mean of four individuals) 124 pg/mL; (Example 58, 4 ug/ml, mean of four individuals) 5228 pg/mL; (Example 58, 20 ug/ml, mean of four individuals) 729 pg/mL.
As for “5′-TCGACGT-3′ [Compound P-14, reference compound]”, the IFN-a mean was found to be 16 pg/mL and the IFN-g mean amounted to 16 pg/mL. The IFN-a (donor 28250) came to 16 pg/mL. The IFN-g under setting [1] was 10 pg/mL. Under “donor 28251”, this substance showed an IFN-a of 16 pg/mL and an IFN-g of 34 pg/mL. Further, where the note is “donor 28252”, the IFN-a is 16 pg/mL and the IFN-g came to 11 pg/mL. Also, for the setting “donor 28253”, the IFN-a is 16 pg/mL and the IFN-g was 10 pg/mL.
Turning to “5′-TCGACGT-3′-HEG-5′-TCGACGT-3′-HEG-5′-TCGACGT-3′ [Compound C-51]”, the IFN-a mean amounted to 437 pg/mL; the IFN-g mean came to 128 pg/mL; the “IFN-α induction, in words” value was “generated more IFN-α than CICs containing a 5′-TCGT-3′”; the “IFN-γ induction, in words” value is recorded as “similar”. Moreover, the “immunomodulatory activity (IFN-γ / IFN-α secretion), in words” value is “more active than other CG-containing CICs”. Under “HEG CIC vs C3 CIC”, the “IFN-α induced relative to C-90 (C3 CIC)” value came to 8 fold. For the setting “Table 10, donor 28042”, this substance came in with an IFN-α of 112 pg/mL and an IFN-γ of 795 pg/mL. Under “Table 10, donor 28043”, this substance yielded an IFN-α of 245 pg/mL and an IFN-γ of 1349 pg/mL. Where the note is “Table 10, donor 28044”, the IFN-α was determined as 240 pg/mL and the IFN-γ came out at 1114 pg/mL. For the setting “Table 10, donor 28045”, this substance had an IFN-α of 36 pg/mL and an IFN-γ of 411 pg/mL. Also, under “Table 10, mean of donors”, the IFN-α mean worked out at 158 pg/mL and the IFN-γ mean is 917 pg/mL. For the setting “Table 24, donor 28234”, this substance came in with an IFN-α of 16 pg/mL and an IFN-γ of 17 pg/mL. For the setting “Table 24, donor 28235”, this substance displayed an IFN-α of 77 pg/mL and an IFN-γ of 123 pg/mL. Under “Table 24, donor 28236”, the IFN-α was determined as 352 pg/mL and the IFN-γ is 193 pg/mL. Under “Table 24, donor 28237”, this substance had an IFN-α of 3798 pg/mL and an IFN-γ of 1580 pg/mL. For the same substance, under setting [2], the IFN-α mean was found to be 1061 pg/mL and the IFN-γ mean stood at 478 pg/mL. The IFN-a (donor 28250) turned out to be 181 pg/mL. Moreover, the IFN-g under setting [1] was found to be 135 pg/mL. Further, for the setting “donor 28251”, the IFN-a is 246 pg/mL and the IFN-g came out at 45 pg/mL. Moreover, where the note is “donor 28252”, the IFN-a came out at 95 pg/mL and the IFN-g came out at 164 pg/mL. Where the note is “donor 28253”, this substance came in with an IFN-a of 1226 pg/mL and an IFN-g of 167 pg/mL. Further, where the note is “donor 110, Table 14”, the “IFN-α” value stood at 1408 pg/mL and the “IFN-γ” value came to 1528 pg/mL. Under “donor 112, Table 14”, the “IFN-α” value came to 72 pg/mL and the “IFN-γ” value was 240 pg/mL. Also, where the note is “donor 119, Table 14”, the “IFN-α” value came to 2200 pg/mL and the “IFN-γ” value is 52 pg/mL. Moreover, under “donor 120, Table 14”, the “IFN-α” value worked out at 622 pg/mL and the “IFN-γ” value turned out to be 40 pg/mL. Moreover, where the note is “Table 14”, the “IFN-α (pg/ml) mean” value is 1076 pg/mL and the “IFN-γ (pg/ml) mean” value came out at 465 pg/mL.
Take “5′-TCGACGT-3′-HEG-5′-TCGACGT-3′-HEG-5′-TCGACGT-3′-HEG-5′-TCGACGT-3′ [Compound C-71]”: the IFN-α by setting is: (Table 24, donor 28234) 17 pg/mL; (Table 24, donor 28235) 30 pg/mL; (Table 24, donor 28236) 538 pg/mL; (Table 24, donor 28237) 1665 pg/mL. In addition, the IFN-γ runs as follows: (Table 24, donor 28234) 30 pg/mL; (Table 24, donor 28235) 168 pg/mL; (Table 24, donor 28236) 448 pg/mL; (Table 24, donor 28237) 1663 pg/mL. This substance also showed an IFN-α mean under setting [2] of 563 pg/mL. Besides, the IFN-γ mean under setting [2] amounted to 577 pg/mL.
Consider “5′-TCGACTC-3′-HEG-5′-TCGAGCG-3′-HEG-5′-TTCTCTT-3′ [Compound C-63]”, for which the “IFN-α” value runs as follows: (donor 110, Table 14) 294 pg/mL; (donor 112, Table 14) 38 pg/mL; (donor 119, Table 14) 464 pg/mL; (donor 120, Table 14) 228 pg/mL. Besides, the “IFN-γ” value reads like this: (donor 110, Table 14) 1536 pg/mL; (donor 112, Table 14) 376 pg/mL; (donor 119, Table 14) 80 pg/mL; (donor 120, Table 14) 60 pg/mL. For the setting “Table 14”, the “IFN-α (pg/ml) mean” value stood at 256 pg/mL. Also, the “IFN-γ (pg/ml) mean” value (Table 14) worked out at 513 pg/mL.
On to “5′-TCGAGAT-3′ [Compound P-13, reference compound]”, for which the IFN-a mean came to 16 pg/mL and the IFN-g mean worked out at 14 pg/mL. Besides, the IFN-a (donor 28250) worked out at 16 pg/mL. Moreover, the IFN-g under setting [1] amounted to 18 pg/mL. Where the note is “donor 28251”, the IFN-a was 16 pg/mL and the IFN-g stood at 13 pg/mL. For the setting “donor 28252”, this substance displayed an IFN-a of 16 pg/mL and an IFN-g of 22 pg/mL. For the same substance, where the note is “donor 28253”, the IFN-a was found to be 16 pg/mL and the IFN-g came out at 1 pg/mL.
As for “5′-TCGAGAT-3′-HEG-5′-TCGAGAT-3′-HEG-5′-TCGAGAT-3′ [Compound C-45]”, the IFN-a mean turned out to be 140 pg/mL; the IFN-g mean is 59 pg/mL; the “IFN-α induction, in words” value was “generated more IFN-α than CICs containing a 5′-TCGT-3′”. Moreover, for the setting “Table 10, donor 28042”, the IFN-α worked out at 62 pg/mL and the IFN-γ was determined as 590 pg/mL. Where the note is “Table 10, donor 28043”, this substance displayed an IFN-α of 123 pg/mL and an IFN-γ of 1466 pg/mL. Also, for the setting “Table 10, donor 28044”, the IFN-α was found to be 152 pg/mL and the IFN-γ was 984 pg/mL. Besides, under “Table 10, donor 28045”, the IFN-α was 14 pg/mL and the IFN-γ is 253 pg/mL. For the same substance, for the setting “Table 10, mean of donors”, the IFN-α mean is 88 pg/mL and the IFN-γ mean was 823 pg/mL. This substance had an IFN-a (donor 28250) of 16 pg/mL. For the same substance, the IFN-g under setting [1] turned out to be 107 pg/mL. For the setting “donor 28251”, this substance showed an IFN-a of 109 pg/mL and an IFN-g of 26 pg/mL. Under “donor 28252”, this substance had an IFN-a of 55 pg/mL and an IFN-g of 95 pg/mL. Under “donor 28253”, this substance displayed an IFN-a of 382 pg/mL and an IFN-g of 8 pg/mL. For the same substance, under “donor 110, Table 14”, the “IFN-α” value came out at 446 pg/mL and the “IFN-γ” value worked out at 880 pg/mL. For the same substance, under “donor 112, Table 14”, the “IFN-α” value is 130 pg/mL and the “IFN-γ” value is 192 pg/mL. Moreover, under “donor 119, Table 14”, the “IFN-α” value was 1074 pg/mL and the “IFN-γ” value was determined as 52 pg/mL. In addition, for the setting “donor 120, Table 14”, the “IFN-α” value worked out at 428 pg/mL and the “IFN-γ” value amounted to 36 pg/mL. Besides, under “Table 14”, the “IFN-α (pg/ml) mean” value was found to be 520 pg/mL and the “IFN-γ (pg/ml) mean” value is 290 pg/mL.
Take “5′-TCGT-3′-HEG-5′-TCGT-3′-HEG-5′-TCGT-3′-HEG-5′-TCGT-3′-HEG-5′-TCGT-3′ [Compound C-44]”: the “IFN-γ induction, in words” value is on record as “induce IFN-γ when used alone”. In addition, under “Table 10, donor 28042”, the IFN-α worked out at 0 pg/mL and the IFN-γ stood at 238 pg/mL. Under “Table 10, donor 28043”, the IFN-α amounted to 12 pg/mL and the IFN-γ came out at 359 pg/mL. Also, for the setting “Table 10, donor 28044”, the IFN-α was found to be 60 pg/mL and the IFN-γ amounted to 484 pg/mL. Under “Table 10, donor 28045”, this substance came in with an IFN-α of 1 pg/mL and an IFN-γ of 51 pg/mL. For the setting “Table 10, mean of donors”, this substance displayed an IFN-α mean of 18 pg/mL and an IFN-γ mean of 283 pg/mL. Under “formulated with cPLGA”, the “activity when formulated with cPLGA, in words” value was “induced considerable IFN-γ and IFN-α when formulated with cPLGA”.
